Measured values published in patent US12310963B2, “Pyrazole derivatives and use thereof” (Tarapeutics Science Inc., priority 2019, dated 2025).

Tests used:
[1] = test system: pulmonary arterial hypertension (PAH); test: Rat model of pulmonary arterial hypertension (PAH), monocrotaline-induced; assay type: in vivo; details: 50 mg/kg by gavage, 28 days
Method: SCXK (SU) 2017-0001. These rats were fed with conventional pellet feeds (Jiangsu Xietong Bio. Co., Ltd.), and were raised in a clean animal room with 12h/12h light/dark cycle. The rats were fed with foods and drinking water on an ad libitum basis. The temperature was maintained at 20-26° C., and the relative humidity was 40-70%. 120 SD rats were divided into 24 cages with 5 rats per group. […] The animals were treated in strict accordance with animal ethics regulations throughout the experiment. According to the method described in “Pharmaceutical experimental animal models: Fabrication and application” and the Standard Operating Procedure for PAH Model Construction of Model Animal Center, rats were intraperitoneally injected with a solution of 1% monocrotaline (MCT, purchased from Sigma, U.S.A.) once at a dose of 35 mg/kg. On Day 7 after the first injection of MCT, MCT was injected again at a dose of 20 mg/kg. The rats in the normal control group were intraperitoneally injected with an equivalent amount of water as a blank solvent. The specific steps were as follows: After the rats in each of the cages were fasted for 8 hours, each of the rats was weighed and recorded for the basic body weight after fasting; based on the measured basic body weight for each of the rats, the amount of MCT required to be injected for each of the rats was calculated according to the modeling dose of 35 mg/kg; based on the amount of MCT required to be injected for each of the rats, the dose for injection of a 1% MCT solution was calculated; the rats were fixed in a holder and intraperitoneally injected with the 1% MCT solution at the calculated dose; the rats were returned to the cages for routine feeding after the injection. […] The blood gas analyzer was operated following the standard operation procedure. […] Each of the rats was administered by gavage once a day starting from the day of regrouping at Week 4. The rats in the negative control group were daily administered by gavage with an equal volume of methylcellulose as vehicle. The rats in each of the groups were administered by gavage for consecutive 4 weeks (i.e., 28 days). […] The rats were weighed after fasting overnight twice a week. The administration dosage was calculated based on the weighing results. […] After the rats were under anesthesia, the pulmonary arterial pressure and the right ventricular systolic pressure of rats were measured. […] The steps were as follows. A No. 3.5 umbilical vein catheter was connected to a system pressure transducer. A formulated solution of […] sodium (purchased from Sangon) was filled into the transducer and the catheter, and bubbles were discharged. The anesthetized rat was placed on a surgical anatomical plate that is adjustable in its temperature. The temperature of the plate was adjusted to be maintained at about 37° C. The rat was fixed in supine position. The neck skin was cut with scissors to the edge of the clavicle, followed by blunt dissection of subcutaneous tissues and muscles, exposing the right external jugular vein. The adipose tissue on the surface was removed with ophthalmic surgical scissors. The external jugular vein was ligated at the […] surgical thread, and a loose knot was made at the proximal end for reserve. The external jugular vein was gently lifted with ophthalmic tweezers and cut with ophthalmic scissors to make a “V” opening. The catheter was quickly inserted, and the loose knot at the proximal end was tightened slightly to prevent bleeding. […] The catheter was further inserted slowly forward, and entered into the pulmonary artery at about 5 cm. […] The blood was transferred into an anticoagulation tube, and loaded in a blood gas analyzer to determine the indexes of partial pressure of oxygen (pO2), partial pressure of carbon dioxide (pCO2) and blood oxygen saturation (SaO2) in the blood.

BaF3 = test: Growth of parental BaF3 cells, Cell Titer-Glo, 72 h; assay type: cell-based; details: Mus musculus
From the text: (§1) In this example, mouse primary B cell BaF3 (purchased from ATCC, U.S.A.) was used. In addition, in this example, mouse BaF3-tel-PDGFRα (stably expressing PDGFRα kinase), mouse BaF3-tel-PDGFRβ (stably expressing PDGFRβ kinase), BaF3-P210 (stably expressing ABL kinase), BaF3-P210-T315I (stably expressing ABL-T315I kinase), BaF3-FL-BRAF-V600E (stably expressing BRAF-V600E kinase), BaF3-TEL-cKIT (stably expressing cKIT kinase), BaF3-TEL-VEGFR2 (stably expressing VEGFR2 kinase), BaF3-TEL-FGFR2 (stably expressing FGFR2 kinase) were also used. The above-mentioned cell trains were all constructed in our laboratory by the method as follows. The sequences of human BCR-ABL (P210 or P210/T315I mutated), full-length BRAF-V600E, cKIT, VEGFR2, FGFR2, PDGFRα, PDGFRβ kinase region were amplified respectively via PCR, and inserted respectively into a MSCV-Puro vector (purchased from Clontech) having a N-terminal TEL fragment and/or NPM fragment and/or TPR fragment, and stably transferred into mouse BaF3 cells by the retroviral method, and the growth factor IL-3 was removed. Eventually, cell lines which are transferred into proteins depending on PDGFRα, PDGFRβ were obtained.
(§2) In this example, solutions of the test compound at different concentrations (0.000508 μM, 0.00152 μM, 0.00457 μM, 0.0137 μM, 0.0411 μM, 0.123 μM, 0.370 μM, 1.11 μM, 3.33 μM, 10 μM) were added to the above cells. The cells were incubated for 72 hours.

[2] = test system: BaF3-tel-PDGFRβ (stably expressing PDGFRβ kinase); test: Growth of BaF3-tel-PDGFRβ cells, Cell Titer-Glo, 72 h; assay type: cell-based, mouse
From the text: as §1, §2

[3] = test system: BaF3-tel-PDGFRα (stably expressing PDGFRα kinase); test: Growth of BaF3-tel-PDGFRα cells, Cell Titer-Glo, 72 h; assay type: cell-based, mouse
From the text: as §1, §2

| SMILES | RVI (right ventricular hypertrophy index) decrease as compared with the negative control group [1] [%] | GI50 (BaF3) [µM] | GI50 [2] [µM] | GI50 [3] [µM] |
| --- | --- | --- | --- | --- |
| COc1ccccc1Oc1c(NS(=O)(=O)c2ccc(C(C)(C)C)cc2)nc(-c2ncccn2)nc1OCCO [bosentan, reference compound] | 15.7 |  |  |  |
| CN1CCN(c2cncc(-c3cn(-c4cc(NC(=O)c5cccc(Cl)n5)ccc4F)nn3)c2)CC1 [Compound 28, 6-chloro-N-(4-fluoro-3-(4-(5-(4-methylpiperazin-1-yl)pyridin-3-yl)-1H-1,2,3-triazol-1-yl)phenyl)picolinamide] |  | 3.9 | < 0.01 | < 0.01 |
| Cc1ccc(NC(=O)c2cc(C(F)(F)F)ccn2)cc1-n1cc(-c2cncc(N3CC4(COC4)C3)c2)nn1 [Compound 41, N-(3-(4-(5-(2-oxa-6-aza-spiro[3.3]hept-6-yl]pyridin-3-yl)-1H-1,2,3-triazol-1-yl)-4-methylphenyl)-4-(trifluoromethyl)picolinamide] |  | 3.66 | < 0.01 | < 0.01 |
| Cc1ccc(NC(=O)c2ccnc(C(F)(F)F)c2)cc1-n1cc(-c2cncc(N3CC4(COC4)C3)c2)cn1 [Compound 33, N-(3-(4-(5-(2-oxa-6-aza-spiro[3.3]hept-6-yl]pyridin-3-yl)-1H-pyrazol-1-yl)-4-methylphenyl)-2-(trifluoromethyl)isonicotinamide] |  | 6.49 | < 0.01 | < 0.01 |
| CN1CCN(c2cncc(-c3cn(-c4cc(NC(=O)c5cccc(C(F)(F)F)n5)ccc4F)nn3)c2)CC1 [Compound 24, N-(4-fluoro-3-(4-(5-(4-methylpiperazin-1-yl)pyridin-3-yl)-1H-1,2,3-triazol-1-yl)phenyl)-6-(trifluoromethyl)picolinamide] |  | 4.76 | < 0.01 | < 0.01 |
| CN1CCN(c2cncc(-c3cn(-c4cc(NC(=O)c5cc(C(F)(F)F)ccn5)ccc4F)nn3)c2)CC1 [Compound 27, N-(4-fluoro-3-(4-(5-(4-methylpiperazin-1-yl)pyridin-3-yl)-1H-1,2,3-triazol-1-yl)phenyl)-4-(trifluoromethyl)picolinamide] |  | 4.73 | < 0.01 | < 0.01 |
| Cc1ccc(NC(=O)c2cncc(C(F)(F)F)c2)cc1-n1cc(-c2cncc(N3CCN(C)CC3)c2)nn1 [Compound 20, N-(4-methyl-3-(4-(5-(4-methylpiperazin-1-yl)pyridin-3-yl)-1H-1,2,3-triazol-1-yl)phenyl)-5-(trifluoromethyl)nicotinamide] |  | 5.07 | < 0.01 | < 0.01 |
| Cc1ccc(NC(=O)c2cccc(F)n2)cc1-n1cc(-c2cncc(N3CCN(C)CC3)c2)cn1 [Compound 14, 6-fluoro-N-(4-methyl-3-(4-(5-(4-methylpiperazin-1-yl)pyridin-3-yl)-1H-pyrazol-1-yl)phenyl)picolinamide] |  | 8.4 | < 0.0015 | < 0.0015 |
| Cc1ccc(NC(=O)c2cccc(C(F)(F)F)n2)cc1-n1cc(-c2cncc(N3CC4(COC4)C3)c2)cn1 [Compound 32, N-(3-(4-(5-(2-oxa-6-aza-spiro[3.3]hept-6-yl]pyridin-3-yl)-1H-pyrazol-1-yl)-4-methylphenyl)-6-(trifluoromethyl)picolinamide] |  | 9.2 | < 0.01 | < 0.01 |
| Cc1ccc(NC(=O)c2cncc(C(F)(F)F)c2)cc1-n1cc(-c2cncc(N3CC4(COC4)C3)c2)cn1 [Compound 34, N-(3-(4-(5-(2-oxa-6-aza-spiro[3.3]hept-6-yl]pyridin-3-yl)-1H-pyrazol-1-yl)-4-methylphenyl)-5-(trifluoromethyl)nicotinamide] |  | > 10 | < 0.01 | < 0.01 |
| Cc1ccc(NC(=O)c2ccnc(C(F)(F)F)c2)cc1-n1cc(-c2cncc(N3CC4(COC4)C3)c2)nn1 [Compound 39, N-(3-(4-(5-(2-oxa-6-aza-spiro[3.3]hept-6-yl]pyridin-3-yl)-1H-1,2,3-triazol-1-yl)-4-methylphenyl)-2-(trifluoromethyl)isonicotinamide] |  | > 10 | < 0.01 | < 0.01 |
| CN1CCN(c2cncc(-c3cn(-c4cc(NC(=O)c5ccnc(C(F)(F)F)c5)ccc4F)nn3)c2)CC1 [Compound 25, N-(4-fluoro-3-(4-(5-(4-methylpiperazin-1-yl)pyridin-3-yl)-1H-1,2,3-triazol-1-yl)phenyl)-2-(trifluoromethyl) isonicotinamide] |  | 5.55 | < 0.01 | < 0.01 |
| Cc1ccc(NC(=O)c2ccnc(C(F)(F)F)c2)cc1-n1cc(-c2cnccc2OCC2CCOCC2)cn1 [Compound 3, N-(4-methyl-3-(4-(4-((tetrahydropyran-4-yl)methoxy)pyridin-3-yl)-1H-pyrazol-1-yl)phenyl)-2-(trifluoromethyl)isonicotinamide] |  | 6.5 | 0.0014 | 0.0014 |
